Reference: US10221173B2, “Chemical compounds” (AstraZeneca AB, priority 2017, dated 2019)
Values after ≈ are worked out from the molar mass of the structure shown.

Legend:
[1] = biological target: estrogen receptor (ERα) in CAMA-1 cells (Homo sapiens (Human), UniProt P03372); experiment: Western blotting assay, ER down-regulation in CAMA-1; type: cell-based; settings: CAMA-1, 100 nM compound, 48 h, vs 100 nM fulvestrant
[2] = Thermodynamic solubility (shake-flask); type: physicochemical; settings: aqueous phosphate buffer, 25 °C, pH 7.4, aqueous buffer, thermodynamic from solid, phosphate buffer pH 7.4, 24 hours
[3] = biological target: T1, Estrogen Receptor (ERα) in MCF-7 cells (Homo sapiens (Human), UniProt P03372); experiment: Western blotting assay, ER down-regulation in MCF-7; type: cell-based; settings: MCF-7, 100 nM compound, 48 h, vs 100 nM fulvestrant
[4] = biological target: T1, Estrogen Receptor (ERα) in MCF-7 cells; experiment: MCF-7 ER down-regulation assay (immuno-fluorescence); type: cell-based
[5] = biological target: recombinant human Estrogen Receptor alpha ligand binding domain (ER alpha-LBD (GST)) (Homo sapiens (Human), UniProt P03372); experiment: ERα binding assay (LanthaScreen TR-FRET competition)
[6] = biological target: hERG potassium channel (Homo sapiens (Human), UniProt Q12809)
[7] = Log D (shake flask, 1-octanol/aqueous buffer); type: physicochemical; settings: 1-octanol/aqueous buffer, pH 7.4, pH 7.4
[8] = Human plasma protein binding (equilibrium dialysis); type: in vitro ADME

recombinant human Estrogen Receptor alpha ligand binding domain (ER alpha-LBD (GST)), sequence (P03372 307-554): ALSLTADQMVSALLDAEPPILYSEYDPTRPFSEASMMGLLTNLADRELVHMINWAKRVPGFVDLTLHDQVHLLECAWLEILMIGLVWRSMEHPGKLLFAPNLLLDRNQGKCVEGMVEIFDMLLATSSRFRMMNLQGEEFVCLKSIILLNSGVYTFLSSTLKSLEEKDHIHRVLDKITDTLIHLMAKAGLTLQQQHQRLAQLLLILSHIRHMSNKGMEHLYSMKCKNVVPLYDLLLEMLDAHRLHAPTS
T1 sequence (P03372 whole entry): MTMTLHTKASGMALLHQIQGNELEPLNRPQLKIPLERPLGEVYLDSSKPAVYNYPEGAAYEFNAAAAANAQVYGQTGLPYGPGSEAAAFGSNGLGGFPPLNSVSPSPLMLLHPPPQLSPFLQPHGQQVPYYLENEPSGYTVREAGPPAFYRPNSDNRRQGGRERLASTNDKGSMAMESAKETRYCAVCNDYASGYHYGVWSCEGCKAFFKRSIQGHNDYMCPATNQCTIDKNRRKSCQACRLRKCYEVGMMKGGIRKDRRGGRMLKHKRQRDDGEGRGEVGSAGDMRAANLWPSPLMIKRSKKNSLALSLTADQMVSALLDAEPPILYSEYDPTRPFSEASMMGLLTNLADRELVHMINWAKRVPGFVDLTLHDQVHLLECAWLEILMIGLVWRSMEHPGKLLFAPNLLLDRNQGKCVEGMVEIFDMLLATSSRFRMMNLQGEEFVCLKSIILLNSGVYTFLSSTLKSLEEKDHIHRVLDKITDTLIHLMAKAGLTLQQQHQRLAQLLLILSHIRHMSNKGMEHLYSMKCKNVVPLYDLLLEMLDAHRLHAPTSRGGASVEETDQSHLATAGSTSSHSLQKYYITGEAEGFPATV
estrogen receptor (ERα) in CAMA-1 cells, sequence (P03372 whole entry): as above
hERG potassium channel, sequence (Q12809 whole entry): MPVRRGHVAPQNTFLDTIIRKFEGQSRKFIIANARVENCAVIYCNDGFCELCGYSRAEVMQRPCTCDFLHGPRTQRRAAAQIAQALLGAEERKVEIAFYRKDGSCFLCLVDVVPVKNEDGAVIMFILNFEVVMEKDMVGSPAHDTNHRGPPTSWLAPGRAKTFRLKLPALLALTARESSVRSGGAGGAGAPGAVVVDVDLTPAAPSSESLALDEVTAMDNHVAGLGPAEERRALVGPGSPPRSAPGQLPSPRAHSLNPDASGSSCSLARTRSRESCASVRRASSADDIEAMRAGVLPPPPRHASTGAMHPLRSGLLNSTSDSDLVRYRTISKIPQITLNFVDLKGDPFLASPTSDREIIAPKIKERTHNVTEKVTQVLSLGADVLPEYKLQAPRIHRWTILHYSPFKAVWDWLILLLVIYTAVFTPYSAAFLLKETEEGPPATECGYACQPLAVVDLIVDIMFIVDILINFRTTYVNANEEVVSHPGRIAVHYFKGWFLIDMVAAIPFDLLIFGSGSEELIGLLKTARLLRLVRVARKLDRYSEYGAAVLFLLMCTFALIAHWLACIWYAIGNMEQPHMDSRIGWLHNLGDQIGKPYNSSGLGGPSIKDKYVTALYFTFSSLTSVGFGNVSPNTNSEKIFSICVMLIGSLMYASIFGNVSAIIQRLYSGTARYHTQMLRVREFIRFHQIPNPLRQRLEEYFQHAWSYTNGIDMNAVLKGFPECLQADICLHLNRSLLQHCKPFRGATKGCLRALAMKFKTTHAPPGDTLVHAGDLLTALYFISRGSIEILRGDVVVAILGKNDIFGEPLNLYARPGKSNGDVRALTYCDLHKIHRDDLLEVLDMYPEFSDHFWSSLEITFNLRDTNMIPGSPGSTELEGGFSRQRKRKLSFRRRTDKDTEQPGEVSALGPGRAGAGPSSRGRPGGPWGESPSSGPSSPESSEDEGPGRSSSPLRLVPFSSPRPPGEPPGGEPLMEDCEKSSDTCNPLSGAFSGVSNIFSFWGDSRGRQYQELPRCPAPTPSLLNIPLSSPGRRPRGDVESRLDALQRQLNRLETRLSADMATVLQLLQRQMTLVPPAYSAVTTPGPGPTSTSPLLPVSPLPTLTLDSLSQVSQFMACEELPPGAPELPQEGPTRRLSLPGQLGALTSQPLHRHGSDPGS

solubility at 24 h [2] [µM] | Compound | CAMA1 Western % ER deg vs Fv [1] [%] | MCF7 Western % ER deg vs Fv [3] [%] | IC50 [4] [nM] | IC50 [5] [nM] | IC50 [6] [nM] | logD [7] | Human plasma protein binding (% free) [8] [% free]
543 (≈ 271 µg/mL) | COc1ccc(OCCNCCCF)cc1[C@@H]1c2[nH]c3ccccc3c2C[C@@H](C)N1CC1(F)COC1 [Example 4, 3-Fluoro-N-(2-(3-((1R,3R)-2-((3-fluorooxetan-3-yl)methyl)-3-methyl-2,3,4,9-tetrahydro-1H-pyrido[3,4-b]indol-1-yl)-4-methoxyphenoxy)ethyl)propan-1-amine] | 75 | 56 |  |  |  |  | 
154 (≈ 73.2 µg/mL) | COc1ccc(OCCNCCCF)cc1[C@@H]1c2[nH]c3ccccc3c2C[C@@H](C)N1CC(F)F [Example 6, N-(2-(3-((1R,3R)-2-(2,2-difluoroethyl)-3-methyl-2,3,4,9-tetrahydro-1H-pyrido[3,4-b]indol-1-yl)-4-methoxyphenoxy)ethyl)-3-fluoropropan-1-amine] | 81 | 97 |  |  |  |  | 
617 (≈ 312 µg/mL) | COc1ccc(OCCNCCCF)cc1[C@@H]1c2[nH]c3ccccc3c2C[C@@H](C)N1CC(F)(F)CO [Example 8, 2,2-Difluoro-3-((1R,3R)-1-(5-(2-((3-fluoropropyl)amino)ethoxy)-2-methoxyphenyl)-3-methyl-1,3,4,9-tetrahydro-2H-pyrido[3,4-b]indol-2-yl)propan-1-ol] | 93 | 98 |  |  |  |  | 
 | C[C@@H]1Cc2c([nH]c3ccccc23)[C@@H](c2c(F)ccc(OCCNCCCF)c2F)N1CC(F)(F)F [Example 9, N-(2-(2,4-difluoro-3-((1R,3R)-3-methyl-2-(2,2,2-trifluoroethyl)-2,3,4,9-tetrahydro-1H-pyrido[3,4-b]indol-1-yl)phenoxy)ethyl)-3-fluoropropan-1-amine] | 101 | 97 | 0.088 | 1.2 |  |  | 
 | C[C@@H]1Cc2c([nH]c3ccccc23)[C@@H](c2cc(OCCNCCCF)ccc2F)N1CC(F)(F)F [Example 10, 3-fluoro-N-(2-(4-fluoro-3-((1R,3R)-3-methyl-2-(2,2,2-trifluoroethyl)-2,3,4,9-tetrahydro-1H-pyrido[3,4-b]indol-1-yl)phenoxy)ethyl)propan-1-amine] | 101 | 94 |  |  |  |  | 
 | COc1ccc(OCCNCCCF)c(F)c1[C@@H]1c2[nH]c3ccccc3c2C[C@@H](C)N1CC(F)(F)F [Example 11, 3-fluoro-N-(2-(2-fluoro-4-methoxy-3-((1R,3R)-3-methyl-2-(2,2,2-trifluoroethyl)-2,3,4,9-tetrahydro-1H-pyrido[3,4-b]indol-1-yl)phenoxy)ethyl)propan-1-amine] | 92 | 94 | 0.14 | 1.2 |  |  | 
 | C[C@@H]1Cc2c([nH]c3ccccc23)[C@@H](c2c(F)ccc(OCCNCCCF)c2F)N1CC(F)(F)CO [Example 14, 3-((1R,3R)-1-(2,6-difluoro-3-(2-((3-fluoropropyl)amino)ethoxy)phenyl)-3-methyl-1,3,4,9-tetrahydro-2H-pyrido[3,4-b]indol-2-yl)-2,2-difluoropropan-1-ol] | 95 | 95 |  |  |  |  | 
74 (≈ 34.3 µg/mL) | C[C@@H]1Cc2c([nH]c3ccccc23)[C@@H](c2cccc(OCCNCCCF)c2)N1CC(F)(F)F [Example 16, 3-fluoro-N-(2-(3-((1R,3R)-3-methyl-2-(2,2,2-trifluoroethyl)-2,3,4,9-tetrahydro-1H-pyrido[3,4-b]indol-1-yl)phenoxy)ethyl)propan-1-amine] | 83 | 89 |  |  |  |  | 
11 (≈ 5.25 µg/mL) | Cc1c(OCCNCCCF)cccc1[C@@H]1c2[nH]c3ccccc3c2C[C@@H](C)N1CC(F)(F)F [Example 20, 3-fluoro-N-(2-(2-methyl-3-((1R,3R)-3-methyl-2-(2,2,2-trifluoroethyl)-2,3,4,9-tetrahydro-1H-pyrido[3,4-b]indol-1-yl)phenoxy)ethyl)propan-1-amine] | 91 |  |  |  |  |  | 
 | Cc1c(OCCNCCCF)ccc(F)c1[C@@H]1c2[nH]c3ccccc3c2C[C@@H](C)N1C[C@H](C)C(=O)O [Example 55, (S)-3-((1R,3R)-1-(6-fluoro-3-(2-((3-fluoropropyl)amino)ethoxy)-2-methylphenyl)-3-methyl-1,3,4,9-tetrahydro-2H-pyrido[3,4-b]indol-2-yl)-2-methylpropanoic acid] | 94 | 89 |  |  |  |  | 
 | C[C@@H]1Cc2c([nH]c3ccccc23)[C@@H](c2c(F)cnc(OCCNCCCF)c2F)N1CC(F)(F)CO [Example 64, 3-((1R,3R)-1-(3,5-difluoro-2-(2-((3-fluoropropyl)amino)ethoxy)pyridin-4-yl)-3-methyl-1,3,4,9-tetrahydro-2H-pyrido[3,4-b]indol-2-yl)-2,2-difluoropropan-1-ol] | 98 | 96 | 0.071 | 0.96 |  |  | 
 | C[C@@H]1Cc2c([nH]c3ccccc23)[C@@H](c2c(F)ccc(OCCNCCCF)c2F)N1CC1(F)CC1 [Example 76, N-(2-(2,4-difluoro-3-((1R,3R)-2-((1-fluorocyclopropyl)methyl)-3-methyl-2,3,4,9-tetrahydro-1H-pyrido[3,4-b]indol-1-yl)phenoxy)ethyl)-3-fluoropropan-1-amine] | 85 | 92 | 0.21 | 1 |  |  | 
 | Cc1c(OCCNCCCF)ccc(F)c1[C@@H]1c2[nH]c3ccc(F)cc3c2C[C@@H](C)N1C[C@@H](C)C(=O)O [Example 121, (R)-3-((1R,3R)-6-fluoro-1-(6-fluoro-3-(2-((3-fluoropropyl)amino)ethoxy)-2-methylphenyl)-3-methyl-1,3,4,9-tetrahydro-2H-pyrido[3,4-b]indol-2-yl)-2-methylpropanoic acid] | 107 | 85 | 0.53 | 2.8 |  |  | 
 | Cc1c(OCCNCCC(F)F)ccc(F)c1[C@@H]1c2[nH]c3ccccc3c2C[C@@H](C)N1C[C@@H](C)C(=O)O [Example 123, (R)-3-((1R,3R)-1-(3-(2-((3,3-difluoropropyl)amino)ethoxy)-6-fluoro-2-methylphenyl)-3-methyl-1,3,4,9-tetrahydro-2H-pyrido[3,4-b]indol-2-yl)-2-methylpropanoic acid] | 90 | 91 | 0.96 | 11 |  |  | 
 | Cc1c(OCCNCCC(F)F)ccc(F)c1[C@@H]1c2[nH]c3ccccc3c2C[C@@H](C)N1C[C@H](C)C(=O)O [Example 124, (S)-3-((1R,3R)-1-(3-(2-((3,3-Difluoropropyl)amino)ethoxy)-6-fluoro-2-methylphenyl)-3-methyl-1,3,4,9-tetrahydro-2H-pyrido[3,4-b]indol-2-yl)-2-methylpropanoic acid] | 82 | 93 | 0.68 | 3.9 |  |  | 
 | Cc1c(OCCNCCCF)ccc(F)c1[C@@H]1c2[nH]c3ccccc3c2C[C@@H](C(F)F)N1C[C@H](C)C(=O)O [Example 137, (S)-3-((1R,3S)-3-(difluoromethyl)-1-(6-fluoro-3-(2-((3-fluoropropyl)amino)ethoxy)-2-methylphenyl)-1,3,4,9-tetrahydro-2H-pyrido[3,4-b]indol-2-yl)-2-methylpropanoic acid] | 95 | 90 | 0.52 | 1.7 |  |  | 
 | C[C@@H](CN1[C@H](c2c(F)ccc(OCCNCCCF)c2Cl)c2[nH]c3ccccc3c2C[C@H]1C(F)(F)F)C(=O)O [Example 141] |  | 79 | 0.98 | 2.8 |  |  | 
 | C[C@@H](CN1[C@H](c2c(F)cnc(OCCNCCCF)c2Cl)c2[nH]c3ccccc3c2C[C@H]1C(F)(F)F)C(=O)O [Example 142, (S)-3-((1R,3S)-1-(3-chloro-5-fluoro-2-(2-((3-fluoropropyl)amino)ethoxy)pyridin-4-yl)-3-(trifluoromethyl)-1,3,4,9-tetrahydro-2H-pyrido[3,4-b]indol-2-yl)-2-methylpropanoic acid] | 80 | 85 | 0.95 | 1.5 |  |  | 
 | Cc1c(OCCN(C)CCCF)ccc(F)c1[C@@H]1c2[nH]c3ccccc3c2C[C@@H](C)N1C[C@H](C)C(=O)O [Example 143, (S)-3-((1R,3R)-1-(6-fluoro-3-(2-((3-fluoropropyl)(methyl)amino)ethoxy)-2-methylphenyl)-3-methyl-1,3,4,9-tetrahydro-2H-pyrido[3,4-b]indol-2-yl)-2-methylpropanoic acid] | 71 | 87 |  |  |  |  | 

Compound | solubility at 24 h [2] [µM] | CAMA1 Western % ER deg vs Fv [1] [%] | MCF7 Western % ER deg vs Fv [3] [%] | IC50 [4] [nM] | IC50 [5] [nM] | IC50 [6] [nM] | logD [7] | Human plasma protein binding (% free) [8] [% free]
COc1ccc(NCCNCCCF)cc1[C@@H]1c2[nH]c3ccccc3c2C[C@@H](C)N1CC(F)(F)F [Example 40, N1-(3-fluoropropyl)-N2-(4-methoxy-3-((1R,3R)-3-methyl-2-(2,2,2-trifluoroethyl)-2,3,4,9-tetrahydro-1H-pyrido[3,4-b]indol-1-yl)phenyl)ethane-1,2-diamine] | 366 (≈ 180 µg/mL) | 70 |  | 0.53 | 7.9 | 4100 | 3 | 0.89
